Measurements: PubChem BioAssay (NCI)
“And” between values parts separate entries of the source, which are not always exact repeats. Identical values can stand only once.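 Compound exposure: 48 hours, 5 concentrations, 96-well plates. GI50 marks 50% less growth. TGI marks complete inhibition of growth.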

Columns and labels:
Assay in all cases: DTP human tumour cell line panel, 48 h
[1] = test system: NCI-H460 lung
[2] = test system: M14 melanoma
[3] = test system: OVCAR-3 ovarian
[4] = test system: SNB-75 CNS
[5] = test system: SW-620 colon
[6] = test system: HOP-62 NSCLC
[7] = test system: OVCAR-8 ovarian
[8] = test system: TK-10 renal
[9] = test system: RPMI-8226 leukemia
[10] = test system: SK-MEL-5 melanoma

SMILES	GI50 [1] [µM]	TGI [1]	GI50 [2] [µM]	TGI [2]	GI50 [3] [µM]	TGI [3]	GI50 [4] [µM]	TGI [4]	GI50 [5] [µM]	TGI [5]	GI50 [6] [µM]	TGI [6] [µM]	GI50 [7] [µM]	TGI [7]	GI50 [8] [µM]	TGI [8] [µM]	GI50 [9] [µM]	TGI [9]	GI50 [10] [µM]	TGI [10]
COc1cc2c3c(n(CCCn4cccn4)c(=O)c2cc1OC)-c1cc2c(cc1C3=O)OCO2	0.52	13.3 µM	0.461	5.07 µM	33.7	> 100 µM	1.53	15.4 µM	1.39	> 100 µM	0.449	11.1	2.83	54.7 µM	35.1	> 100	2.44	22.4 µM	1.48	5.24 µM
CCC1N2CCCCC2[C@@H]2c3[nH]c4ccccc4c3CCN12 (stereo partly specified)	–	> 100 µM	–	> 100 µM	–	> 100 µM	–	> 100 µM	–	> 100 µM	–	> 100	–	> 100 µM	–	> 100	–	> 100 µM	–	> 100 µM
NCC(=O)OCN1C(=O)C2C3C=CC(C2C1=O)C1C2C(=O)N(COC(=O)CN)C(=O)C2C31 (stereo unspecified)	–	35.8 µM and 34.3 µM	–	35.3 µM and 33.9 µM	–	82.1 µM and 93.4 µM	–	62.6 µM and > 100 µM	–	44.7 µM and 54.2 µM	–	> 100	–	47.4 µM and 39 µM	–	> 100	–	72.5 µM and 59.7 µM	–	51.7 µM and 34 µM
COc1ccccc1NC(=O)N/C(N)=N/c1nc2ccccc2s1	0.115	> 100 µM	0.0788	> 100 µM	0.0403	0.317 µM	0.0556	–	0.0531	> 100 µM	0.111	> 100	0.262	> 100 µM	–	> 100	0.163	> 72.4 µM	0.201	> 100 µM
COc1cc(C(C)c2cc3c(cc2OCCOCCOc2cc4c(cc2C(C)c2cc(OC)c(OC)c(OC)c2)OCO4)OCO3)cc(OC)c1OC (stereo unspecified)	> 100	> 100 µM	> 100	> 100 µM	–	> 10 µM	> 10	> 10 µM and 74.8 µM	> 100	> 100 µM	> 100	> 100	> 100	> 100 µM	> 100	> 100	–	> 100 µM	> 10	> 100 µM
CN([N-]C(=O)CC(=O)[N-]N(C)C(=S)c1ccccc1)C(=S)c1ccccc1.[Cu+2]	0.0227	0.14 µM	0.0377	0.172 µM	< 0.01	0.03 µM	0.0298	0.116 µM	0.0206	0.108 µM	0.134	0.275	0.0598	0.232 µM	0.0461	0.174	0.0284	0.224 µM	0.0599	0.192 µM
Cc1cc(C)c(S(=O)(=O)Oc2ccccc2[N+](=O)[O-])c(C)c1	2.4	> 100 µM	0.976	> 26.6 µM	1	3.63 µM	1.82	7.04 µM	0.583	> 100 µM	3.33	> 100	4.28	> 100 µM	4.86	> 100	2.54	> 100 µM	2	7.8 µM
CCc1nc2cc(/C=C/C(=O)NO)c(F)cc2c(=O)n1CCc1ccccc1	0.349	3.4 µM	1.15	3.8 µM	0.385	4.76 µM	2.41	17.3 µM	0.619	13.9 µM	1.05	5.98	0.753	9.22 µM	0.881	5.49	0.654	44.8 µM	0.512	2.52 µM
CCCCCCCCCCSS(=O)(=O)c1ccc(C)cc1	–	23.9 µM	–	25 µM	–	33.1 µM	–	5.22 µM	–	33.4 µM	–	40.1	–	32.2 µM	–	37.9	–	29.6 µM	–	17.2 µM
CC(=O)[CH-]C(=O)c1ccccc1.CC(=O)[CH-]C(=O)c1ccccc1.CC(C)CCCC(C)[C@H]1CCC2[C@@H]3CCC4C[C@@H]([O-])CC[C@]4(C)C3CC[C@@]21C.CC(C)CCCC(C)[C@H]1CCC2[C@@H]3CCC4C[C@@H]([O-])CC[C@]4(C)C3CC[C@@]21C.Cl.[Ti+4] (stereo partly specified)	> 25	> 25 µM	> 25	> 25 µM	> 25	> 25 µM	> 25	> 25 µM	> 25	> 25 µM	> 25	> 25	> 25	> 25 µM	> 25	> 25	> 25	> 25 µM	> 25	> 25 µM
COc1cccc2c1C(=O)c1c(O)c3c(c(O)c1C2=O)C[C@@](O)(C(=O)COC(=O)c1cccnc1)C[C@@H]3OC1CC(N)C(O)C(C)O1 (stereo partly specified)	0.0269	0.215 µM	0.17	1.06 µM	0.287	2.52 µM	0.084	0.534 µM	0.0605	2.17 µM	0.124	1.28	0.183	4.85 µM	0.149	0.845	0.114	0.714 µM	0.118	0.252 µM
CC(C)[C@H](COC(C)(C)C)N=CN1CSc2ccccc21	–	> 100 µM	–	> 100 µM	–	58.2 µM	–	77.1 µM	–	> 100 µM	–	> 100	–	> 100 µM	–	> 100	–	54 µM	–	63 µM
C[C@]1(O)CC(=O)[C@]2(O)C3=C(C=C[C@]2(O)C1)C(=O)c1c(O)cccc1C3=O	5.15	23.8 µM	1.7	3.45 µM	1.23	2.62 µM	11.4	26.4 µM	1.2	3.35 µM	15.6	42.6	2.67	7.75 µM	2.27	3.97	1.64	5.65 µM	1.75	3.47 µM
COc1cc(/C=C\c2cc(/C=C\c3ccc(O)c(OC)c3)n(C(=O)Nc3ccc(C(F)(F)F)cc3)n2)ccc1O	3.22	9.95 µM	1.94	4.08 µM	3.41	26.7 µM	2.99	66 µM	2.56	5.9 µM	3.6	16.2	3.33	> 100 µM	4.13	14.8	2.09	6.59 µM	2.27	6.89 µM
COC(=O)/C=C\C1C(C(=O)OC)C2(C(=O)OC)CCC1(C(=O)OC)N2 (stereo unspecified)	–	42.5 µM	–	28.8 µM	–	28.7 µM	–	32.9 µM	–	9.38 µM	–	34.1	–	19 µM	–	15	–	26.4 µM	–	34.1 µM
COc1cc(C)c(N(C)C(=O)CN(C)C)cc1Nc1nc(Nc2cccc(F)c2C(N)=O)c2cc[nH]c2n1	> 23.2	> 25 µM	> 25	> 25 µM	> 25	> 25 µM	> 25	> 25 µM	> 22.4	> 25 µM	> 25	> 25	> 25	> 25 µM	> 22	> 25	> 22	> 25 µM	13.3	> 25 µM
O=c1c2cc(-c3ccccc3)sc2nc2sc(-c3ccccc3)nn12	–	> 100 µM	–	> 100 µM	–	> 100 µM	–	> 100 µM	–	> 100 µM	–	> 100	–	> 100 µM	–	> 100	–	> 100 µM	–	> 100 µM
COC(=O)c1c(C(=O)OC)c(C(=O)OC)c(C(=O)OC)c1C(=O)OC	–	> 100 µM	–	> 100 µM	–	> 100 µM	–	> 100 µM	–	> 100 µM	–	> 100	–	> 100 µM	–	> 100	–	> 100 µM	–	> 100 µM
C#Cc1cccc(N2C(=O)CC(=P(c3ccccc3)(c3ccccc3)c3ccccc3)C2=O)c1	–	> 100 µM	–	> 100 µM	–	> 100 µM	–	> 100 µM	–	> 100 µM	–	> 100	–	> 100 µM	–	> 100	–	63.2 µM	–	83.7 µM
CCC(=O)[O-].CCC(=O)[O-].N.N.N.N.[Co+3].[O-][Cl+3]([O-])([O-])[O-]	> 100	> 100 µM	> 100	> 100 µM	> 100	> 100 µM	> 100	> 100 µM	> 100	> 100 µM	> 100	> 100	> 100	> 100 µM	> 100	> 100	> 100	> 100 µM	> 100	> 100 µM
CCCCCCCCOC(=O)c1cc(O)c(O)c(O)c1	2.73	10.9 µM	2.15	9.19 µM	2.03	14.9 µM	2.71	37.6 µM	2.87	19.4 µM	4.77	20	3.14	37.5 µM	3.77	> 62.6	0.511	> 100 µM	3.26	11.6 µM
COc1ccc(S(=O)(=O)N2CCCCC2)cc1NC(=O)c1[nH]c(C)c2c1CCCCC2=O	4.01	> 100 µM	1.49	> 100 µM	2.64	> 100 µM	0.141	3.46 µM	8.04	> 100 µM	0.904	> 100	2.19	46.6 µM	0.658	38.1	1.46	32.4 µM	1.4	3.88 µM
CC(C)NCCCNC1=C(Cl)C(=O)c2ccccc2C1=O	3.96	16.4 µM	1.86	3.49 µM	1.83	3.58 µM	10.3	22.4 µM	1.74	3.37 µM	13.8	27.4	2.13	5.1 µM	22.7	38.8	3.48	19.2 µM	1.54	2.88 µM
Cc1ccc2nc(NC(=O)CSC(=S)N3CCN(Cc4ccccc4)CC3)sc2c1	> 100	> 100 µM	> 100	> 100 µM	> 100	> 100 µM	> 100	> 100 µM	> 100	> 100 µM	> 100	> 100	> 100	> 100 µM	> 100	> 100	75.9	> 100 µM	56	> 100 µM
O=C(O/N=C1/CCC/C1=C\c1ccccc1)c1ccc(Cl)cc1	–	> 31.6 µM	–	> 100 µM	–	> 71.9 µM	–	78 µM	–	> 100 µM	–	> 89.6	–	> 100 µM	–	> 100	–	> 100 µM	–	> 100 µM
O=C(O)c1cc2c3c(c1)[C@H]1C=CC[C@H]1CN3CC1CC=CC21 (stereo partly specified)	–	> 100 µM	–	> 100 µM	–	> 100 µM	–	> 100 µM	–	> 100 µM	–	> 100	–	> 100 µM	–	> 100	–	> 100 µM	–	> 100 µM
CC(=O)[CH-]C(=O)c1ccccc1.CC(=O)[CH-]C(=O)c1ccccc1.[O-]c1ccc(O)cc1.[O-]c1ccc(O)cc1.[Ti+4]	14.2	44.6 µM	15.6	30.8 µM	13.9	27.2 µM	14.3	28.1 µM	17	31.6 µM	18.8	41.5	13.5	31.5 µM	27.7	59.2	5.63	> 100 µM	16.2	30.3 µM
CC(C)c1cccc2sc(NC(=O)C(=O)CC(=O)c3ccc(F)cc3)nc12	–	> 100 µM	–	> 100 µM	–	> 100 µM	–	> 100 µM	–	> 100 µM	–	> 100	–	> 100 µM	–	> 100	–	> 100 µM	–	> 100 µM
